Measured values taken from US5196547A, “Meso-azacyclic amides of imidazopyridine carboxylic acids and analogs thereof” (G. D. Searle & Co., priority 1992, dated 1993).

Target: T1, 5-HT3 receptor (Rattus norvegicus, UniProt P35563)
T1 construct: Brain cortices are obtained from male rats and a membrane fraction prepared by standard techniques; from tissue; host or cells: male rat brain cortex, membrane fraction
T1 sequence (P35563 24-483): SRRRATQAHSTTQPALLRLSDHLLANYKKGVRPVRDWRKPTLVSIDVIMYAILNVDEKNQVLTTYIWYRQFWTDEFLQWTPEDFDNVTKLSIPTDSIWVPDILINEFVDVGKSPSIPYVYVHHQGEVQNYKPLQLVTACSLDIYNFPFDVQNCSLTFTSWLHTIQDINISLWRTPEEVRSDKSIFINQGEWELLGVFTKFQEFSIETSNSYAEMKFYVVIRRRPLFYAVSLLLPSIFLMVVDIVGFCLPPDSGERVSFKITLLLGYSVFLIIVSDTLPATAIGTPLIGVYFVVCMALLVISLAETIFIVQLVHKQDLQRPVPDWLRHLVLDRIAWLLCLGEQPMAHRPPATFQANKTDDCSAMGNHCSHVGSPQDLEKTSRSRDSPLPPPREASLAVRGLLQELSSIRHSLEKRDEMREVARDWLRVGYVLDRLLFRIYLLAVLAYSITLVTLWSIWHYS
Assay: Serotonin (5-HT3) radioligand receptor binding assay, [3H]-GR65630
Protocol: 5-HT3 antagonism can be determined by the radioligand receptor binding assay as described herein and in the in vivo Bezold-Jarisch reflex procedure.
GR65630 binds to the 5-HT3 receptor. Brain cortices are obtained from male rats and a membrane fraction prepared by standard techniques. 0.04 mg of membrane prep is incubated with 0.2 nM [^3 H]-GR656630 for 60 minutes at 22° C. […] Membranes are filtered and washed 3 times and the filters are counted to determine [3H]-GR65630 specifically bound.*
*Literature References: Kilpatrick GJ, Jones BJ and Tyers MG. Identification and distribution of 5-HT3 receptors in rat brain using radioligand binding. Nature, 330 : 746-748, 1987.

| SMILES | Kd | % Specific Binding ([3H]-GR65630, non-specific binding in the presence of 1 uM ICS 205-930) | IC50 | Ki |
| --- | --- | --- | --- | --- |
| Cc1nc[nH]c1CCC(=O)c1cn(C)c2ccccc12 [GR65630] | 2.46 nM | 70% |  |  |
| COc1cc(N)c(Cl)cc1C(=O)NC1CN2CCC1CC2 (centres unmarked) [Zacopride] |  |  | 0.55 nM | 0.18 nM |
| c1ccc2nc(N3CCNCC3)ccc2c1 [Quipazine] |  |  | 0.5 nM | 0.18 nM |
| COc1ccc2[nH]cc(C3=CCNCC3)c2c1 [RU24969] |  |  | 320 nM | 1850 nM |
